Experimental data taken from US9114171B2, “Racecadotril liquid compositions” (McNeil-PPC, Inc., priority 2012, dated 2015).

Experiments:
[1] = Stability of Racecadotril in Water; assay type: physicochemical; details: room temperature and 40° C.
Method: (§1) For comparative purposes, the stability of racecadotril was tested at room temperature and at 40° C. Test Methods Sample Preparation: • 1. Pipet 1 mL of Racecadotril solution into a 100 mL volumetric flask (V.F.) • 2. Dilute to volume with the same buffer used in the solution preparation. • 3. Further dilute the sample solution to about 0.1 mg/mL if necessary. […] Parameters may be modified to optimize chromatography. • The assay of Racecadotril is determined by using the external standard injected. The degradation products levels are determined by % peak area relative to the Racecadotril peak. Chromatographic Conditions (European Pharmacopoeia Racecadotril Method): […]

[2] = Stability of Racecadotril in Beta-Hydroxypropyl-Cyclodextrin (Beta-HPCD), Table 5; assay type: physicochemical
Method: Formulations of racecadotril in beta-hydroxypropyl-cyclodextrin were evaluated (Table 5).
as §1, with “Test” for “For comparative purposes, the stability of racecadotril was tested at room temperature and at 40° C. Test”

For CC(=O)SCC(Cc1ccccc1)C(=O)NCC(=O)OCc1ccccc1 (racemic) [Racecadotril], the racecadotril present ([1]; in water, at 1 week) was “less than 1%”, the stability in water [1] was “unstable after 12 hours” and the “solubility utilizing Beta-HPCD” value [2] was “higher solubility was achieved utilizing the Beta-HPCD”. The “stability in Beta-HPCD versus buffers alone” value ([2]; 40° C.) was “stability is similar to that in buffers alone”.
